Source: article PMC7756784 (Chemistry (Weinheim an Der Bergstrasse, Germany), 2020)

Target: human galectin-1 (Gal-1) (Homo sapiens, UniProt P09382)
Assay: ITC, single-site model
Format: binding
Conditions: 50 mM sodium phosphate, 150 mM NaCl, pH 7.4, 1 mM TCEP

Chain of human galectin-1 (Gal-1) (P09382 2-135): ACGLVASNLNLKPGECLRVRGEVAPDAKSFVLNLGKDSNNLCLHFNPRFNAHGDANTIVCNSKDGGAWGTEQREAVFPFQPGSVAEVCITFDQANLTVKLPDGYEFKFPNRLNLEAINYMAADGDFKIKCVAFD

Structure (SMILES): CC(=O)N[C@H]1C(O)O[C@H](CO)[C@@H](O[C@@H]2O[C@H](CO)[C@H](O)[C@H](O[C@H]3O[C@H](CO)[C@H](O)[C@H](O)[C@H]3O)[C@H]2O[C@@H]2O[C@@H](C)[C@@H](O)[C@@H](O)[C@@H]2O)[C@@H]1O (some centres unmarked) [compound 4, B type‐II]
- Kd: 379 µM

Structure (SMILES): CC(=O)N[C@H]1C(O)O[C@H](CO)[C@@H](O[C@@H]2O[C@H](CO)[C@H](O)[C@H](O)[C@H]2O[C@@H]2O[C@@H](C)[C@@H](O)[C@@H](O)[C@@H]2O)[C@@H]1O (some centres unmarked) [compound 3, H type‐II]
- Kd: 319 µM
